# Results from patent US11603373B2, “TDO2 and IDO1 inhibitors” (Genentech, Inc., priority 2017, dated 2023).
# Assays:
# [1] = molecular target: T1, IDO1 (A172+IFNg cells, high IDO expressing cells) (Homo sapiens, UniProt P14902); experiment: NFK GreenScreen cell assay, inhibition of IDO in A172+IFNg cells; format: cell-based; conditions: read-out: IDO cell Fluor EC50
# T1 construct: A172+IFNg cells (high IDO expressing cells); endogenous in cells; host or cells: A172 cells induced with 100 ng/ml IFNγ
# From the text: (§1) Cells are counted on a Vi-Cell (Beckman Coulter). […] The final DMSO concentration is 0.5%.
# [2] = molecular target: T2, TDO2 (SW48 cells, high TDO expressing cells) (Homo sapiens, UniProt P48775); experiment: NFK GreenScreen cell assay, inhibition of TDO in SW48 cells; format: cell-based; conditions: read-out: TDO2 Cell Fluor EC50
# T2 construct: SW48 cells (high TDO expressing cells); endogenous in cells; host or cells: SW48 cells
# From the text: as §1
# T1 sequence (P14902 whole entry): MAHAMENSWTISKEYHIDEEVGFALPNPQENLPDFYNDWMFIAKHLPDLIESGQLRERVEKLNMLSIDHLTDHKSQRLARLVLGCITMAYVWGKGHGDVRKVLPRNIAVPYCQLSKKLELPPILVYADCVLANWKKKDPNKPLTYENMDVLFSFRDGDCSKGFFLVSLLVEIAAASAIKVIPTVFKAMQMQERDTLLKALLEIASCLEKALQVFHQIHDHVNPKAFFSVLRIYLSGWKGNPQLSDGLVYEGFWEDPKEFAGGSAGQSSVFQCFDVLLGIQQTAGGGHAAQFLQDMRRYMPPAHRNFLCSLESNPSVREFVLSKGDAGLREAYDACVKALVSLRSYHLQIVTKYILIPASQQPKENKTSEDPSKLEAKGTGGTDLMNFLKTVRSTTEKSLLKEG
# T2 sequence (P48775 whole entry): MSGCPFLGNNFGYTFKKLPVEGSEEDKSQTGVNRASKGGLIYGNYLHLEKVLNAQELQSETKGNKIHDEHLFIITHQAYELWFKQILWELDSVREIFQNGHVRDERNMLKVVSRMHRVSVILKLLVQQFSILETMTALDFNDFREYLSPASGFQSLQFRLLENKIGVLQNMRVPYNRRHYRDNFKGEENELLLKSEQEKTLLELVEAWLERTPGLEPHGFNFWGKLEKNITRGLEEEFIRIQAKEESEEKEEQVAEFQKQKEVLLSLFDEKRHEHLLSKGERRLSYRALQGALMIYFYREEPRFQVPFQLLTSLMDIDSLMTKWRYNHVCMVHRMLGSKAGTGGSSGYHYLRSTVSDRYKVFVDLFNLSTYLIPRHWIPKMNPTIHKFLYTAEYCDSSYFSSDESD
Structure (SMILES),EC50 [1],EC50 [2]
"CS(=O)(=O)N1CC2(CCC(C3c4ccccc4-c4cncn43)C2O)C1 (single isomer, unassigned) [compound 16, 6-(5H imidazo[5,1-a]isoindol-5-yl)-2-(methylsulfonyl)-2-azaspiro[3.4]octan-5-ol]",220 nM,95 nM
"O=C(C(F)F)N1CCC2(CC1)CC(C1c3ccccc3-c3cncn31)C2O (stereo not shown) [compound 69, 2,2-difluoro-1-[3-hydroxy-2-(5H-imidazo[1,5-b]isoindol-5-yl)-7-azaspiro[3.5]nonan-7-yl]ethanone]",350 nM,370 nM
"CC(=O)N1CC2(CC[C@H]([C@@H]3c4ccccc4-c4cncn43)[C@H]2O)C1 (single isomer, unassigned) [Example 17]",1300 nM,670 nM
"CC(C)(C)OC(=O)N1CC2CCC(C1)C21C[C@H]([C@H]2c3ccccc3-c3cncn32)[C@H]1O (stereo partly drawn) [Example 22f, tert-butyl (2′R,3′R)-2′-hydroxy-3′-((S)-5H-imidazo[5,1-a]isoindol-5-yl)-3-azaspiro[bicyclo[3.2.1]octane-8,1′-cyclobutane]-3-carboxylate]",92 nM,1400 nM
"CS(=O)(=O)N1CCC2(CC[C@@H]([C@@H]3c4ccccc4-c4cncn43)[C@@H]2O)CC1 (single isomer, unassigned) [Example 7a]",3900 nM,370 nM
"O=C(CC1CCOCC1)N1CCC2(CC1)CC(C1c3ccccc3-c3cncn31)C2O (stereo not shown) [compound 51, 1-[3-hydroxy-2-(5H-imidazo[1,5-b]isoindol-5-yl)-7-azaspiro[3.5]nonan-7-yl]-2-tetrahydropyran-4-yl-ethanone]",390 nM,220 nM
"O=S(=O)(C1COC1)N1CCC2(CC1)C[C@H](C1c3ccccc3-c3cncn31)[C@@H]2O (stereo in doubt) [Example 23b, (2R,3S)-2-((5S)5H-imidazo[1,5-b]isoindol-5-yl)-7-(oxetan-3-ylsulfonyl)-7-azaspiro[3.5]nonan-3-ol]",2500 nM,3200 nM
"NS(=O)(=O)N1CCC2(CC[C@H]([C@H]3c4ccccc4-c4cncn43)[C@H]2O)CC1 (single isomer, unassigned) [Example 4b]",16000 nM,510 nM
"CC(NC=O)C(=O)N1CCC2(CC1)CC(C1c3ccccc3-c3cncn31)C2O (stereo not shown) [compound 42, N-[2-[3-hydroxy-2-(5H-imidazo[1,5-b]isoindol-5-yl)-7-azaspiro[3.5]nonan-7-yl]-1-methyl-2-oxo-ethyl]formamide]",1100 nM,4100 nM
"CP(C)(=O)N1CCC2(CC1)C[C@@H]([C@H]1c3ccccc3-c3cncn31)[C@H]2O (single isomer, unassigned) [Example 15b]",1100 nM,1500 nM
"CC(=O)N1CCC(S(=O)(=O)N2CCC3(CC2)CC(C2c4ccccc4-c4cncn42)C3O)CC1 (stereo not shown) [compound 35, 1-[4-[[3-hydroxy-2-(5H-imidazo[1,5-b]isoindol-5-yl)-7-azaspiro[3.5]nonan-7-yl]sulfonyl]-1-piperidyl]ethanone]",140 nM,460 nM
"O=C([C@@H]1CC1(F)F)N1CCC2(CC[C@@H]([C@H]3c4ccccc4-c4cncn43)[C@H]2O)CC1 (single isomer, unassigned) [Example 25a]",34 nM,81 nM
"CC(C)(C)OC(=O)N1CCC2(CC1)C[C@H](C1c3ccccc3-c3cncn31)[C@@H]2O (single isomer, unassigned) [Example 1a]",4300 nM,6300 nM
"O=C(C1CC1)N1CCC2(CC1)CC(C1c3ccccc3-c3cncn31)C2O (stereo not shown) [compound 43, cyclopropyl-[3-hydroxy-2-(5H-imidazo[1,5-b]isoindol-5-yl)-7-azaspiro[3.5]nonan-7-yl]methanone]",360 nM,850 nM
"NC(=O)N1CCC(C(=O)N2CCC3(CC2)CC(C2c4ccccc4-c4cncn42)C3O)CC1 (stereo not shown) [compound 66, 4-[3-hydroxy-2-(5H-imidazo[1,5-b]isoindol-5-yl)-7-azaspiro[3.5]nonane-7-carbonyl]piperidine-1-carboxamide]",13000 nM,14000 nM
"CC(C)(C)OC(=O)N1[C@@H]2CC[C@H]1C[C@@]1(C[C@H]([C@@H]3c4ccccc4-c4cncn43)[C@@H]1O)C2 (single isomer, unassigned) [Example 12i]",5800 nM,13000 nM
"O=S(=O)(CF)N1CCC2(CC1)C[C@H]([C@@H]1c3ccccc3-c3cncn31)[C@@H]2O (single isomer, unassigned) [Example 8a]",17000 nM,15000 nM
"N#CCS(=O)(=O)N1CCC2(CC1)CC(C1c3ccccc3-c3cncn31)C2O (stereo not shown) [Example 21a, 2-[[3-hydroxy-2-(5H-imidazo[,5-b]isoindol-5-yl)-7-azaspiro[3.5]nonan-7-yl]sulfonyl]acetonitrile]",150 nM,180 nM
"NS(=O)(=O)N1CCC2(CC1)C[C@@H]([C@@H]1c3ccccc3-c3cncn31)[C@@H]2O (single isomer, unassigned) [Example 11h]",–,11000 nM

Structure (SMILES),EC50 [1],EC50 [2]
"NC(=O)N1CCCC(C(=O)N2CCC3(CC2)CC(C2c4ccccc4-c4cncn42)C3O)C1 (stereo not shown) [compound 64, 3-[3-hydroxy-2-(5H-imidazo[1,5-b]isoindol-5-yl)-7-azaspiro[3.5]nonane-7-carbonyl]piperidine-1-carboxamide]",17000 nM,13000 nM
"CC(=O)N1CCC2(CC1)C[C@@H]([C@H]1c3ccccc3-c3cncn31)[C@H]2O [compound 56, 1-[3-hydroxy-2-(5H-imidazo[1,5-b]isoindol-5-yl)-7-azaspiro[3.5]nonan-7-yl]ethanone]",660 nM,790 nM
"CS(=O)(=O)N1CCC2(CC1)C[C@H]([C@H]1c3ccccc3-c3cncn31)[C@H]2O (single isomer, unassigned) [Example 6g]",4680 nM,1230 nM
"Cc1ccncc1S(=O)(=O)N1CCC2(CC1)C[C@@H]([C@H]1c3ccccc3-c3cncn31)[C@H]2O [compound 32, (1R,2S)-2-((S)-5H-imidazo[5,1-a]isoindol-5-yl)-7-((4-methylpyridin-3-yl)sulfonyl)-7-azaspiro[3.5]nonan-1-ol]",49 nM,300 nM
"CC(C)(C)OC(=O)N1CC2CCC(C1)C21C[C@@H]([C@H]2c3ccccc3-c3cncn32)[C@H]1O (single isomer, unassigned) [Example 22b]",12000 nM,5000 nM
"O=S(=O)(C(F)F)N1CCC2(CC1)C[C@@H]([C@H]1c3ccccc3-c3cncn31)[C@H]2O (single isomer, unassigned) [Example 14b]",68 nM,130 nM
"NS(=O)(=O)N1CCC2(CC1)C[C@@H]([C@H]1c3ccccc3-c3cncn31)[C@@H]2O (single isomer, unassigned) [Example 11d]",–,3000 nM
"O=C(CN1CCCC1=O)N1CCC2(CC1)C[C@@H]([C@H]1c3ccccc3-c3cncn31)[C@H]2O [compound 52, 1-[2-[3-hydroxy-2-(5H-imidazo[1,5-b]isoindol-5-yl)-7-azaspiro[3.5]nonan-7-yl]-2-oxo-ethyl]pyrrolidin-2-one]",3900 nM,3700 nM
"CC(C)(C)OC(=O)N1[C@@H]2CC[C@H]1C[C@]1(C[C@H]([C@@H]3c4ccccc4-c4cncn43)[C@H]1O)C2 (single isomer, unassigned) [Example 12g]",4700 nM,2100 nM
"CC(C)(C)OC(=O)N[C@H]1CC[C@]2(CC1)C[C@H]([C@H]1c3ccccc3-c3cncn31)[C@@H]2O (single isomer, unassigned) [Example 24n]",240 nM,1100 nM
"CC(C)(C)OC(=O)N1CCC2(CC[C@H]([C@H]3c4ccccc4-c4cncn43)[C@H]2O)CC1 (single isomer, unassigned) [Example 2b]",410 nM,240 nM
"CC(C)(C)OC(=O)N1[C@@H]2CC[C@H]1C[C@]1(C[C@@H]([C@@H]3c4ccccc4-c4cncn43)[C@H]1O)C2 (single isomer, unassigned) [Example 12l]",12000 nM,410 nM
"CC(C)(C)OC(=O)N[C@H]1CC[C@]2(CC1)C[C@@H]([C@H]1c3ccccc3-c3cncn31)[C@@H]2O (single isomer, unassigned) [Example 24o]",–,20000 nM
"CC(=O)N1CCC2(CC[C@H]([C@@H]3c4ccccc4-c4cncn43)[C@@H]2O)CC1 (single isomer, unassigned) [Example 10b]",240 nM,170 nM
"CC(C)(C)OC(=O)N[C@H]1CC[C@]2(CC1)C[C@H]([C@H]1c3ccccc3-c3cncn31)[C@@H]2O [Example 24g, tert-butyl ((1S,2R,4r,7S)-1-hydroxy-2-((S)-5H-imidazo[5,1-a]isoindol-5-yl)spiro[3.5]nonan-7-yl)carbamate]",1800 nM,1100 nM
"COC(=O)N1CCC2(CC[C@@H]([C@H]3c4ccccc4-c4cncn43)[C@H]2O)CC1 (single isomer, unassigned) [Example 9a]",18000 nM,21000 nM
"CC(=O)N1CCC2(CC[C@@H]([C@H]3c4ccccc4-c4cncn43)[C@H]2O)CC1 (single isomer, unassigned) [Example 10a]",–,24000 nM
"CC(C)(C)OC(=O)N1CC2CCC(C1)C21C[C@H]([C@H]2c3ccccc3-c3cncn32)[C@@H]1O (stereo partly drawn) [Example 22c, tert-butyl (2′S,3′R)-2′-hydroxy-3′-((S)-5H-imidazo[5,1-a]isoindol-5-yl)-3-azaspiro[bicyclo[3.2.1]octane-8,1′-cyclobutane]-3-carboxylate]",8800 nM,–
"O=C(C1CCc2nncn2C1)N1CCC2(CC1)CC(C1c3ccccc3-c3cncn31)C2O (stereo not shown) [compound 67, [3-hydroxy-2-(5H-imidazo[1,5-b]isoindol-5-yl)-7-azaspiro[3.5]nonan-7-yl]-(5,6,7,8-tetrahydro-[1,2,4]triazolo[4,3-a]pyridin-6-yl)methanone]",–,23000 nM
